Experiments:
[1] = target: T1, porcine pancreatic lipase (PPL) (Sus scrofa, UniProt P00591); experiment: Subvisible particle formation after PPL digestion of PS20 (HIAC); format: physicochemical; settings: 0.02% PS20; for effect on SVP formation (in words): 15 μg/mL PPL 4.5 hours, then 5° C. overnight, excipient 15% w/v (methionine 10 mg/mL)
T1 construct: purchased Sigma Aldrich Inc. (St. Louis, Mo.)
T1 sequence (P00591 1-450): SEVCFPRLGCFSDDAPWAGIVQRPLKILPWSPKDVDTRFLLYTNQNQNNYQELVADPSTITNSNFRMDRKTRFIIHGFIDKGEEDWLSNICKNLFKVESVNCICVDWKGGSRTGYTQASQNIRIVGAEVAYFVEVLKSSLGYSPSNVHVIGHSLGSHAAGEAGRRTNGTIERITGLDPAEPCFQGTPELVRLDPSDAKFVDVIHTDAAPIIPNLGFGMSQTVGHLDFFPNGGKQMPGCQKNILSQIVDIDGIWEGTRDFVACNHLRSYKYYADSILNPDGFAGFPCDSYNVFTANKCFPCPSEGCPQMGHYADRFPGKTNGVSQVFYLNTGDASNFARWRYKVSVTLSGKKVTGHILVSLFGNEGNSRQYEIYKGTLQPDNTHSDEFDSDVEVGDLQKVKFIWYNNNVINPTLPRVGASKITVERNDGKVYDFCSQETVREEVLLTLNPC
Experimental: (§1) Subvisible particles were measured using a HIAC 9703 particle counter equipped with an HRDL-150 detector and a 1 mL syringe. Performance of the instrument was verified with NIST-traceable 2 μm Polystyrene bead standards at 3000 counts/mL before each measurement session. The HIAC instrument was configured to a 10 mL/min flow rate, 0.1 mL tare volume, and 0.4 mL sample volume. The samples were analyzed using 4 runs of 0.4 mL sips, with the first run of each sample was discarded to prevent measurement error due to sample carryover. Results were reported as the average values for 1.4, 2, 5, 10, 15, and 25, 50 μm analysis filter sizes.
Several excipients were tested for their ability to protect PS20 against enzymatic hydrolysis including HP-α-CD, HP-β-CD, HP-γ-CD, SBE-β-CD, PVP, PEG 1500, sucrose, and methionine. Solutions of each excipient in pH 5.5 buffer were prepared containing a final concentration of 0.02% PS20 after enzyme addition. The concentration of HP-α-CD, HP-β-CD, HP-γ-CD, and SBE-β-CD in the excipient solutions was 106 mM. […] The remaining excipients (PVP, PEG 1500, sucrose) were added to 15% w/v to match the % w/v of HP-β-CD. Samples were digested with 15 μg/mL PPL enzyme for 4.5 hours at room temperature, followed by 30 minutes of heat inactivation at 85° C. Each sample was analyzed for PS20 concentration using high performance liquid chromatography with an inline evaporative light scattering detector. Samples were then placed at 5° C. overnight to allow for the formation of particles and were analyzed for visible and subvisible particles as described previously.
The effect of the HP-β-CD concentration at different PS20 concentrations on the enzymatic degradation of PS20 was assessed to identify optimal concentrations for inhibition of enzymatic PS20 degradation. To evaluate the dependence of PS20 degradation on HP-β-CD concentration, the PS20 content was determined using RP-ELSD for triplicate samples containing different HP-β-CD concentrations at various PS20 concentrations. Samples containing 0.005% (FIG. 14A), 0.02% (FIG. 14B), 0.1% (FIG. 14C), and 0.4% PS20 (FIG. 14D) were digested using 15 μg/mL of PPL enzyme for 4.5 hours at room temperature in protein-free samples containing no excipient (control), 0, 0.5, 5, and 15% (w/v) HP-β-CD. PPL was added to each of the treatment solutions at a ratio of 75 […], with an equivalent volume of buffer added to the control solutions to determine the effect of HP-β-CD to polysorbate ratio on enzymatic degradation. Digestion was stopped by heat inactivation in an 85° C. water bath for 30 minutes. Each sample was analyzed for PS20 concentration using high performance liquid chromatography with an inline evaporative light scattering detector as described above. Samples were then placed at 5° C. overnight to allow for the formation of particles and placed on ice during analysis for visible and subvisible particles as described above.

CALB, RLE, and LPL = experiment: PS20 loss and subvisible particles after digestion, summary across CALB, LPL and RLE; format: biochemical; settings: 15% (w/v) HP-β-CD vs 0%; ≥2, ≥5, ≥10, ≥25 micron; HIAC
Experimental: as §1
Polysorbate concentration was determined using reverse phase ultra-performance liquid chromatography using evaporative light scattering detection (RP-ELSD). Samples were analyzed using an Agilent 1100 series high performance liquid chromatography system (HPLC) fitted with a Waters Oasis MAX cartridge column (20×2.1 mm, 30 μm particle size). […] In order to quantitate the PS20 concentration, a standard curve was generated by injecting 20 μL of solutions containing between 0% w/v and 0.4% w/v PS20. For excipients which affected the migration time of PS20 through the column, PS20 standard curve solutions containing the relevant excipient were included in the analysis to facilitate accurate quantitation. […]

[2] = PPL 4.5 hours, particles greater than 2, 5, or 10μ

## 2-hydroxypropyl-α-cyclodextrin [HP-α-CD]
[1]
  effect on SVP formation (in words): significant inhibitory effects

## 2-hydroxypropyl-β-cyclodextrin [HP-β-CD]
CALB, RLE, and LPL
  subvisible particulates (SVP/mL) after enzymatic degradation: fewer SVP/mL
[1]
  effect on SVP formation (in words): significant inhibitory effects
[1]; [2]
  HP-β-CD concentration required to completely inhibit sub-visible particle formation: 15%
  HP-β-CD concentration required to partially inhibit sub-visible particle formation: 0.5%

Reference: patent US10933141B2, “Formulations with reduced degradation of polysorbate” (Genentech, Inc., priority 2015, dated 2021)
